# Laboratory results taken from patent US10702507B2, “Endoparasite control agent” (THE UNIVERSITY OF TOKYO, priority 2014, dated 2020).
# Tested on: 1st-stage larvae of Haemonchus contortus
# Experiment: Test for effect on motion of larvae of Haemonchus nematode
# Conditions: 20 larvae per well, 27° C./95% RH for 4 days, corrected against DMSO negative control, duplicate
# Description: Test for Effect on Motion of Larvae of Haemonchus Nematode (Haemonchus contortus) The compound of the present invention was prepared as solutions in 100% DMSO at the final concentrations of 50 ppm, 5 ppm, 0.5 ppm, 0.05 ppm and 0.005 ppm. DMSO stands for dimethyl sulfoxide. A larval suspension containing 1st-stage larvae of Haemonchus contortus harvested by the Baermann technique (for example, see K. Nakazono et al., “Inclination of Baermann funnel wall and efficiency of nematode extraction” Proc. Assoc. Pl. Prot. Kyushu 33: 126-130 (1987)) was placed at a density of 20 larvae per well in a test plate, and 0.5 μL/well of the test solution containing the compound of the present invention diluted to a predetermined concentration was added to the test plate. The plate was kept under the conditions of 27° C./95% RH for 4 days. In the test, ivermectin was used for the positive control and DMSO was used for the negative control. The motor ability of the larvae was examined with an automatic analyzer equipped with an LCD camera. The inhibitory effect on the motion of the larvae in each treatment plot was corrected based on the inhibitory effect in the plot treated with DMSO only for the negative control. The EC50 value was calculated from the data on the corrected inhibitory effect on the motion of the larvae, and graded according to the criteria shown below. The test was conducted in duplicate per plot.
row,Structure (SMILES),"EC50 value of corrected inhibitory effect on the motion of the larvae, graded"
1,CC(CNC(=O)c1ccccc1C(F)(F)F)c1ccc(Oc2ncc(C(F)(F)F)cc2Cl)cc1Cl (racemic) [Compound 1-41],C or higher
2,CC(CNC(=O)c1ccccc1C(F)(F)F)c1ccc(Oc2ccc(C(F)(F)F)cn2)cc1Cl (racemic) [Compound 1-42],C or higher
3,CC(CNC(=O)c1ccccc1C(F)(F)F)c1ccc(Oc2ncc(Cl)cc2Cl)cc1Cl (racemic) [Compound 1-43],C or higher
4,CC(CNC(=O)c1ccccc1C(F)(F)F)c1ccc(-c2ccc(C(F)(F)F)cc2)cc1Cl (racemic) [Compound 1-57],C or higher
5,CC(CNC(=O)c1ccccc1C(F)(F)F)c1ccc(-c2ccccc2)cc1Cl (racemic) [Compound 1-58],C or higher
6,CC(CNC(=O)c1ccccc1C(F)(F)F)c1ccc(-c2ccncc2)cc1Cl (racemic) [Compound 1-59],C or higher
7,COC(CNC(=O)c1ccccc1C(F)(F)F)c1ccc(Oc2ncc(C(F)(F)F)cc2Cl)cc1Cl (racemic) [Compound 1-60],C or higher
8,COC(CNC(=O)c1ccccc1C(F)(F)F)c1ccc(Oc2ccc(C(F)(F)F)cn2)cc1Cl (racemic) [Compound 1-61],C or higher
9,COC(CNC(=O)c1ccccc1C(F)(F)F)c1ccc(Oc2ncc(Cl)cc2Cl)cc1Cl (racemic) [Compound 1-62],C or higher
10,O=C(NCCc1ccc(Oc2ncc(Cl)cc2Cl)cc1Cl)c1ccccc1C(F)(F)F [Compound 1-1],C or higher
11,O=C(NCCc1ccc(Oc2ncc(Br)cc2Cl)cc1Cl)c1ccccc1C(F)(F)F [Compound 1-2],C or higher
12,O=C(NCCc1ccc(Oc2nccnc2C(F)(F)F)cc1Cl)c1ccccc1C(F)(F)F [Compound 1-3],C or higher
13,O=C(NCCc1ccc(Oc2nccnc2Cl)cc1Cl)c1ccccc1C(F)(F)F [Compound 1-4],C or higher
14,O=C(NCCc1ccc(Oc2cnccn2)cc1Cl)c1ccccc1C(F)(F)F [Compound 1-5],C or higher
15,COc1cc(OC)nc(Oc2ccc(CCNC(=O)c3ccccc3C(F)(F)F)c(Cl)c2)n1 [Compound 1-6],C or higher
16,Cc1cc(C)nc(Oc2ccc(CCNC(=O)c3ccccc3C(F)(F)F)c(Cl)c2)n1 [Compound 1-7],C or higher
17,O=C(NCCc1ccc(Oc2ccnc(Cl)n2)cc1Cl)c1ccccc1C(F)(F)F [Compound 1-8],C or higher
18,O=C(NCCc1ccc(Oc2cc(Cl)nc(Cl)n2)cc1Cl)c1ccccc1C(F)(F)F [Compound 1-9],C or higher
19,Cc1cc(Oc2ccc(CCNC(=O)c3ccccc3C(F)(F)F)c(Cl)c2)nc(Cl)n1 [Compound 1-10],C or higher

row,Structure (SMILES),"EC50 value of corrected inhibitory effect on the motion of the larvae, graded"
1,Cc1cnc(Cl)nc1Oc1ccc(CCNC(=O)c2ccccc2C(F)(F)F)c(Cl)c1 [Compound 1-11],C or higher
2,O=C(NCCc1ccc(Oc2ccc3ccccc3n2)cc1Cl)c1ccccc1C(F)(F)F [Compound 1-13],C or higher
3,O=C(NCCc1ccc(Oc2cnc3ccccc3n2)cc1Cl)c1ccccc1C(F)(F)F [Compound 1-14],C or higher
4,O=C(NCCc1ccc(Oc2nc3ccccc3s2)cc1Cl)c1ccccc1C(F)(F)F [Compound 1-15],C or higher
5,O=C(NCCc1ccc(Oc2nc3ccc(Cl)cc3s2)cc1Cl)c1ccccc1C(F)(F)F [Compound 1-16],C or higher
6,O=C(NCCc1ccc(Oc2nc3ccccc3o2)cc1Cl)c1ccccc1C(F)(F)F [Compound 1-17],C or higher
7,O=C(NCCc1ccc(Oc2ccccc2)cc1Cl)c1ccccc1C(F)(F)F [Compound 1-18],C or higher
8,O=C(NCCc1ccc(Oc2ccc(C(F)(F)F)cc2)cc1Cl)c1ccccc1C(F)(F)F [Compound 1-19],C or higher
9,O=C(NCCc1ccc(Oc2ncc(C(F)(F)F)cc2Cl)cc1Cl)c1ccccc1I [Compound 1-20],C or higher
10,O=C(NCCc1ccc(Oc2ccc(C(F)(F)F)cn2)cc1Cl)c1ccccc1I [Compound 1-21],C or higher
11,O=C(NCCc1ccc(Oc2ncc(Cl)cc2Cl)cc1Cl)c1ccccc1I [Compound 1-22],C or higher
12,O=C(NCCc1ccc(Oc2ncc(Br)cc2Cl)cc1Cl)c1ccccc1I [Compound 1-23],C or higher
13,O=C(NCCc1ccc(Oc2nccnc2C(F)(F)F)cc1Cl)c1ccccc1I [Compound 1-24],C or higher
14,O=C(NCCc1ccc(Oc2nccnc2Cl)cc1Cl)c1ccccc1I [Compound 1-25],C or higher
15,O=C(NCCc1ccc(Oc2cnccn2)cc1Cl)c1ccccc1I [Compound 1-26],C or higher
16,COc1cc(OC)nc(Oc2ccc(CCNC(=O)c3ccccc3I)c(Cl)c2)n1 [Compound 1-27],C or higher
17,Cc1cc(C)nc(Oc2ccc(CCNC(=O)c3ccccc3I)c(Cl)c2)n1 [Compound 1-28],C or higher
18,O=C(NCCc1ccc(Oc2ccnc(Cl)n2)cc1Cl)c1ccccc1I [Compound 1-29],C or higher
19,O=C(NCCc1ccc(Oc2cc(Cl)nc(Cl)n2)cc1Cl)c1ccccc1I [Compound 1-30],C or higher

row,Structure (SMILES),"EC50 value of corrected inhibitory effect on the motion of the larvae, graded"
1,Cc1cc(Oc2ccc(CCNC(=O)c3ccccc3I)c(Cl)c2)nc(Cl)n1 [Compound 1-31],C or higher
2,Cc1cnc(Cl)nc1Oc1ccc(CCNC(=O)c2ccccc2I)c(Cl)c1 [Compound 1-32],C or higher
3,O=C(NCCc1ccc(Oc2ccc3ccccc3n2)cc1Cl)c1ccccc1I [Compound 1-34],C or higher
4,O=C(NCCc1ccc(Oc2cnc3ccccc3n2)cc1Cl)c1ccccc1I [Compound 1-35],C or higher
5,O=C(NCCc1ccc(Oc2nc3ccccc3s2)cc1Cl)c1ccccc1I [Compound 1-36],C or higher
6,O=C(NCCc1ccc(Oc2nc3ccc(Cl)cc3s2)cc1Cl)c1ccccc1I [Compound 1-37],C or higher
7,O=C(NCCc1ccc(Oc2nc3ccccc3o2)cc1Cl)c1ccccc1I [Compound 1-38],C or higher
8,O=C(NCCc1ccc(Oc2ccccc2)cc1Cl)c1ccccc1I [Compound 1-39],C or higher
9,O=C(NCCc1ccc(Oc2ccc(C(F)(F)F)cc2)cc1Cl)c1ccccc1I [Compound 1-40],C or higher
10,CC(C)(CNC(=O)c1ccccc1C(F)(F)F)c1ccc(Oc2ncc(C(F)(F)F)cc2Cl)cc1Cl [Compound 1-44],C or higher
11,CC(C)(CNC(=O)c1ccccc1C(F)(F)F)c1ccc(Oc2ccc(C(F)(F)F)cn2)cc1Cl [Compound 1-45],C or higher
12,CC(C)(CNC(=O)c1ccccc1C(F)(F)F)c1ccc(Oc2ncc(Cl)cc2Cl)cc1Cl [Compound 1-46],C or higher
13,O=C(NCC1(c2ccc(Oc3ncc(C(F)(F)F)cc3Cl)cc2Cl)CC1)c1ccccc1C(F)(F)F [Compound 1-47],C or higher
14,O=C(NCC1(c2ccc(Oc3ccc(C(F)(F)F)cn3)cc2Cl)CC1)c1ccccc1C(F)(F)F [Compound 1-48],C or higher
15,O=C(NCC1(c2ccc(Oc3ncc(Cl)cc3Cl)cc2Cl)CC1)c1ccccc1C(F)(F)F [Compound 1-49],C or higher
16,O=C(NCCc1ccc(-c2ccc(C(F)(F)F)cc2)cc1Cl)c1ccccc1C(F)(F)F [Compound 1-50],C or higher
17,O=C(NCCc1ccc(-c2cccc(C(F)(F)F)c2)cc1Cl)c1ccccc1C(F)(F)F [Compound 1-51],C or higher
18,O=C(NCCc1ccc(-c2cc(F)cc(F)c2)cc1Cl)c1ccccc1C(F)(F)F [Compound 1-52],C or higher
